Values joined by “and” are separate entries in the source; they are usually repeats but may differ in a detail not shown here. Equal values may be shown once. Toxic doses and inconclusive results are not listed.
System: BDF1 mice, P388 leukemia ip, median survival T/C
Assay: NCI In Vivo Anticancer Drug Screen. Data for tumor model P388 Leukemia (intraperitoneal) in B6D2F1 (BDF1) mice
Conditions: endpoint: median survival time, higher = longer survival
How it was run: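 T/C = treated-group survival ÷ vehicle-control survival; tumour transplanted into mice before dosing.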

[1] = dose: 100.0 mg/kg/injection, schedule: Q04DX003 (ip), vehicle: saline with Tween-80
[2] = dose: 100.0 mg/kg/injection, schedule: Q04DX003 (ip), vehicle: Klucel (hydroxypropylcellulose) (HPC)
[3] = dose: 200.0 mg/kg/injection, schedule: Q04DX003 (ip), vehicle: saline with Tween-80
[4] = dose: 50.0 mg/kg/injection, schedule: Q01DX009 (ip), vehicle: saline with Tween-80
[5] = dose: 100.0 mg/kg/injection, schedule: Q01DX009 (ip), vehicle: saline with Tween-80
[6] = dose: 200.0 mg/kg/injection, schedule: Q01DX009 (ip), vehicle: saline with Tween-80

## O=C1NC(Cc2ccc(N(CCCl)CCCl)cc2)C(=O)O1 (stereo not drawn)
dose: 0.06 mg/kg/injection, schedule: Q01DX009 (ip), vehicle: saline with Tween-80
  T/C: 104 % of control
dose: 0.12 mg/kg/injection, schedule: Q01DX009 (ip), vehicle: saline with Tween-80
  T/C: 150 % of control
dose: 0.2 mg/kg/injection, schedule: Q04DX003 (ip), vehicle: saline with Tween-80
  T/C: 100 % of control
dose: 0.25 mg/kg/injection, schedule: Q01DX009 (ip), vehicle: saline with Tween-80
  T/C: 159 % of control
dose: 0.3 mg/kg/injection, schedule: Q04DX003 (ip), vehicle: saline with Tween-80
  T/C: 112 % of control
dose: 0.5 mg/kg/injection, schedule: Q01DX009 (ip), vehicle: saline with Tween-80
  T/C: 168 % of control
dose: 0.5 mg/kg/injection, schedule: Q04DX003 (ip), vehicle: saline with Tween-80
  T/C: 112 % of control
dose: 0.8 mg/kg/injection, schedule: Q04DX003 (ip), vehicle: saline with Tween-80
  T/C: 154 % of control
dose: 1.0 mg/kg/injection, schedule: Q04DX003 (ip), vehicle: saline with Tween-80
  T/C: 163 % of control
dose: 1.3 mg/kg/injection, schedule: Q04DX003 (ip), vehicle: saline with Tween-80
  T/C: 159 % of control
dose: 2.0 mg/kg/injection, schedule: Q01DX009 (ip), vehicle: saline with Tween-80
  T/C: 230 % of control
dose: 2.0 mg/kg/injection, schedule: Q04DX003 (ip), vehicle: saline with Tween-80
  T/C: 168 % of control and 172 % of control
dose: 3.0 mg/kg/injection, schedule: Q04DX003 (ip), vehicle: saline with Tween-80
  T/C: 200 % of control
dose: 3.4 mg/kg/injection, schedule: Q04DX003 (ip), vehicle: saline with Tween-80
  T/C: 150 % of control
dose: 4.5 mg/kg/injection, schedule: Q04DX003 (ip), vehicle: saline with Tween-80
  T/C: 222 % of control
dose: 5.2 mg/kg/injection, schedule: Q04DX003 (ip), vehicle: saline with Tween-80
  T/C: 154 % of control
dose: 5.5 mg/kg/injection, schedule: Q01DX009 (ip), vehicle: saline with Tween-80
  T/C: 230 % of control
dose: 8.0 mg/kg/injection, schedule: Q01DX009 (ip), vehicle: saline with Tween-80
  T/C: 230 % of control
dose: 8.0 mg/kg/injection, schedule: Q04DX003 (ip), vehicle: saline with Tween-80
  T/C: 195 % of control
dose: 12.0 mg/kg/injection, schedule: Q01DX009 (ip), vehicle: saline with Tween-80
  T/C: 115 % of control
dose: 27.0 mg/kg/injection, schedule: Q04DX003 (ip), vehicle: saline with Tween-80
  T/C: 272 % of control (2×) and 207 % of control
dose: 40.0 mg/kg/injection, schedule: Q04DX003 (ip), vehicle: saline with Tween-80
  T/C: 157 % of control
dose: 60.0 mg/kg/injection, schedule: Q04DX003 (ip), vehicle: saline with Tween-80
  T/C: 119 % of control

## O=[N+]([O-])c1ccc(N/N=C/CCl)c([N+](=O)[O-])c1
dose: 6.25 mg/kg/injection, schedule: Q04DX003 (ip), vehicle: saline with Tween-80
  T/C: 120 % of control
dose: 12.5 mg/kg/injection, schedule: Q04DX003 (ip), vehicle: saline with Tween-80
  T/C: 120 % of control
dose: 16.5 mg/kg/injection, schedule: Q04DX003 (ip), vehicle: saline with Tween-80
  T/C: 118 % of control
dose: 25.0 mg/kg/injection, schedule: Q04DX003 (ip), vehicle: saline with Tween-80
  T/C: 118 % of control

## CC(=O)O.[Au].c1ccc([PH+](c2ccccc2)c2ccccc2)cc1
[1]
  T/C: 110 % of control

## CC(=O)Nc1nccs1
dose: 25.0 mg/kg/injection, schedule: Q01DX009 (ip), vehicle: Klucel (hydroxypropylcellulose) (HPC)
  T/C: 104 % of control
dose: 25.0 mg/kg/injection, schedule: Q04DX003 (ip), vehicle: Klucel (hydroxypropylcellulose) (HPC)
  T/C: 95 % of control
dose: 50.0 mg/kg/injection, schedule: Q01DX009 (ip), vehicle: Klucel (hydroxypropylcellulose) (HPC)
  T/C: 95 % of control
dose: 50.0 mg/kg/injection, schedule: Q04DX003 (ip), vehicle: Klucel (hydroxypropylcellulose) (HPC)
  T/C: 91 % of control
dose: 100.0 mg/kg/injection, schedule: Q01DX009 (ip), vehicle: Klucel (hydroxypropylcellulose) (HPC)
  T/C: 109 % of control
[2]
  T/C: 95 % of control

## Cc1nc2ccccc2c(=O)n1C(C)(C)CCl
[1]
  T/C: 100 % of control
[3]
  T/C: 109 % of control

## CCCCCCCCCCCCCCCCCCCC/C=C/C1CC(=O)OC1=O (stereo not drawn)
dose: 75.0 mg/kg/injection, schedule: Q01DX009 (ip), vehicle: Klucel (hydroxypropylcellulose) (HPC)
  T/C: 95 % of control
[2]
  T/C: 100 % of control
dose: 150.0 mg/kg/injection, schedule: Q01DX009 (ip), vehicle: Klucel (hydroxypropylcellulose) (HPC)
  T/C: 95 % of control
dose: 200.0 mg/kg/injection, schedule: Q04DX003 (ip), vehicle: Klucel (hydroxypropylcellulose) (HPC)
  T/C: 87 % of control
dose: 300.0 mg/kg/injection, schedule: Q01DX009 (ip), vehicle: Klucel (hydroxypropylcellulose) (HPC)
  T/C: 86 % of control
dose: 400.0 mg/kg/injection, schedule: Q04DX003 (ip), vehicle: Klucel (hydroxypropylcellulose) (HPC)
  T/C: 87 % of control

## COc1ccc(CC2c3ccccc3CC[N+]2(C)C)cc1Oc1ccc(CC2c3ccccc3CC[N+]2(C)C)cc1 (stereo not drawn)
dose: 0.39 mg/kg/injection, schedule: Q04DX003 (ip), vehicle: saline
  T/C: 98 % of control
dose: 0.78 mg/kg/injection, schedule: Q04DX003 (ip), vehicle: saline
  T/C: 105 % of control
dose: 1.56 mg/kg/injection, schedule: Q04DX003 (ip), vehicle: saline with Tween-80
  T/C: 104 % of control

## COC(=O)/C=C\SC(=S)C1CCCC1=NC1CCCCC1 (stereo not drawn)
[4]
  T/C: 102 % of control
[5]
  T/C: 97 % of control

## CC(=O)Nc1cc(C)ccc1O
[1]
  T/C: 100 % of control
[3]
  T/C: 104 % of control
dose: 400.0 mg/kg/injection, schedule: Q04DX003 (ip), vehicle: saline with Tween-80
  T/C: 90 % of control

## CCCCCCCCCCCC(=O)NC1CC(O[C@H]2C[C@](O)(C(=O)CO)Cc3c(O)c4c(c(O)c32)C(=O)c2c(OC)cccc2C4=O)OC(C)C1O (stereo partly drawn)
dose: 0.78 mg/kg/injection, schedule: Q01DX009 (ip), vehicle: water
  T/C: 113 % of control
dose: 3.13 mg/kg/injection, schedule: Q01DX009 (ip), vehicle: water
  T/C: 159 % of control
dose: 6.25 mg/kg/injection, schedule: Q01DX009 (ip), vehicle: water
  T/C: 168 % of control
dose: 12.5 mg/kg/injection, schedule: Q01DX009 (ip), vehicle: water
  T/C: 240 % of control
dose: 25.0 mg/kg/injection, schedule: Q01DX009 (ip), vehicle: water
  T/C: 159 % of control

## CCCCOC(=O)c1ccc(OP(=O)(N(C)C)N(C)C)cc1
[4]
  T/C: 100 % of control
[5]
  T/C: 94 % of control
[6]
  T/C: 87 % of control

## c1cc2c(cc1CNC1=NCCO1)OCO2
dose: 100.0 mg/kg/injection, schedule: Q01DX001 (ip), vehicle: saline with Tween-80
  T/C: 100 % of control
dose: 200.0 mg/kg/injection, schedule: Q01DX001 (ip), vehicle: saline with Tween-80
  T/C: 95 % of control
dose: 400.0 mg/kg/injection, schedule: Q01DX001 (ip), vehicle: saline with Tween-80
  T/C: 118 % of control

## c1cc2n(n1)CCN2
dose: 50.0 mg/kg/injection, schedule: Q01DX009 (ip), vehicle: water
  T/C: 105 % of control
dose: 80.0 mg/kg/injection, schedule: Q01DX009 (ip), vehicle: saline
  T/C: 90 % of control
dose: 100.0 mg/kg/injection, schedule: Q01DX009 (ip), vehicle: water
  T/C: 90 % of control
[1]
  T/C: 120 % of control
dose: 100.0 mg/kg/injection, schedule: Q04DX003 (ip), vehicle: water
  T/C: 103 % of control
dose: 120.0 mg/kg/injection, schedule: Q01DX009 (ip), vehicle: saline
  T/C: 107 % of control
dose: 180.0 mg/kg/injection, schedule: Q01DX009 (ip), vehicle: saline
  T/C: 112 % of control
dose: 200.0 mg/kg/injection, schedule: Q01DX009 (ip), vehicle: water
  T/C: 90 % of control
dose: 200.0 mg/kg/injection, schedule: Q04DX003 (ip), vehicle: water
  T/C: 96 % of control
dose: 400.0 mg/kg/injection, schedule: Q04DX003 (ip), vehicle: water
  T/C: 121 % of control

## CCOCCN1CCN(CCCN2c3ccccc3Sc3ccc(C(F)(F)F)cc32)CC1
dose: 6.25 mg/kg/injection, schedule: Q04DX003 (ip), vehicle: saline
  T/C: 107 % of control and 112 % of control
dose: 12.5 mg/kg/injection, schedule: Q04DX003 (ip), vehicle: saline
  T/C: 116 % of control
dose: 50.0 mg/kg/injection, schedule: Q04DX003 (ip), vehicle: saline
  T/C: 101 % of control

## CC1(C)CC2(C)OC2C2(C1)N=NC(=Nc1ccccc1)O2 (stereo not drawn)
[4]
  T/C: 117 % of control

## Clc1ccc(-c2nc(-c3ccccc3)c(-c3ccccc3)o2)cc1
[4]
  T/C: 100 % of control
[5]
  T/C: 111 % of control
[6]
  T/C: 116 % of control

Reference: PubChem BioAssay AID328 (DTP/NCI, 2004)
